One may read the EC50 as the concentration giving half of the maximal effect.

The results in this text go back to patent publication US20250122155A1, “NOVEL INDOLE DERIVATIVE, PHARMACEUTICAL COMPOSITION COMPRISING SAME, AND USE THEREOF” (MITOIMMUNE THERAPEUTICS INC., priority 2021, published 2025).

The test system of one test is NIH/3T3 cells. Kind of test: Cell death protective effect in fibroblasts against Erastin, glutamate and RSL3 (LDH). It counts as cell-based, mouse. Particulars: 24 hours. The procedure: In order to identify the protective effect on fibroblasts, NIH/3T3 cells were divided into 96-well plates by 8×10^3 and cultured for 18 to 24 hours. The compounds of Examples were diluted to final concentrations of 0.1 and 1 μM, treated in each well, and incubated for 15 to 20 minutes. Erastin, glutamate, and RSL3 were treated to have final concentrations of 3 μM, 30 mM, and 3 μM, respectively, and cultured for 24 hours. In order to identify the protective effect of each compound, the degree of LDH extracellular secretion was measured using cytotoxicity LDH assay kit [Dojindo; CK12]. Briefly, at the time when the treatment of the cells with Erastin, glutamate, and RSL3 for 24 hours is completed, the supernatants containing the cells are taken by 70 μL and transferred to a new 96-well plate. The assay buffer included in the kit is added in an amount of 70 μL/well (the same amount as the sample) thereto, and then the plate is wrapped with a foil and the reaction is performed at room temperature for 15 minutes. After observing the changed color of the sample, the stop solution was added in an amount of 35 μL/well thereto, and then the 00 inhibition value was calculated by measuring the absorbance value at a wavelength of 490 nm using an iD3 spectrophotometer.

For another test, the system named is NRK-49F cells. Kind of test: Cell death protective effect in renal fibroblasts against Erastin, glutamate and RSL3 (LDH). Particulars: 24 hours. The class given is cell-based, rat. The protocol: In order to identify the protective effect on renal fibroblasts, NRK-49F cells were divided into 96-well plates by 1×10^4 and cultured for 18 to 24 hours. The compounds of Examples were diluted to final concentrations of 0.1 and 1 μM, treated in each well, and incubated for 15 to 20 minutes. Erastin, glutamate, and RSL3 were treated to have final concentrations of 3 μM, 75 mM, and 3 μM, respectively, and cultured for 24 hours. In order to identify the protective effect of each compound, the degree of LDH extracellular secretion was measured using cytotoxicity LDH assay kit [Dojindo; CK12]. Briefly, at the time when the treatment of the cells with Erastin, glutamate, and RSL3 for 24 hours is completed, the supernatants containing the cells are taken by 70 μl and transferred to a new 96-well plate. The assay buffer included in the kit is added in an amount of 70 μL/well (the same amount as the sample) thereto, and then the plate is wrapped with a foil and the reaction is performed at room temperature for 15 minutes.

A further test has as its system MLE-12 cells. In words: Cell death protective effect in lung epithelial cells against RSL3 (LDH). The conditions noted are these: MLE-12, RSL3 1.0 μM, 24 hours. The class given is cell-based, rat. The procedure: In order to identify the protective effect on lung epithelial cells, MLE-12 cells were divided into 96-well plates by 5×10^3 and cultured for 18 to 24 hours. The compounds of Examples were diluted to final concentrations of 0.1 and 1.0 μM, treated in each well, and incubated for 20 minutes. RSL3 was treated to have final concentrations of 1.0 μM, respectively, and cultured for 24 hours. In order to identify the protective effect of each compound, the degree of LDH extracellular secretion was measured using cytotoxicity LDH assay kit [Dojindo; CK12]. Briefly, at the time when the treatment of the cells with RSL3 for 24 hours is completed, the supernatants containing the cells are taken by 70 μL and transferred to a new 96-well plate. The assay buffer included in the kit is added in an amount of 70 μL/well (the same amount as the sample) thereto, and then the plate is wrapped with a foil and the reaction is performed at room temperature for 15 minutes.

A further test has as its system ARPE-19 cells. In words: Cell death protective effect in retinal epithelial cells against Erastin and RSL3 (LDH). The class given is cell-based, human. Particulars: 24 hours. The procedure: In order to identify the protective effect on retinal epithelial cells, ARPE-19 cells were divided into 96-well plates by 1×10^4 and cultured for 18 to 24 hours. The compounds of Examples were diluted to final concentrations of 0.03 and 0.3 μM, treated in each well, and incubated for 20 minutes. Erastin, and RSL3 were treated to have final concentrations of 10 μM, and 0.3 μM, respectively, and cultured for 24 hours. In order to identify the protective effect of each compound, the degree of LDH extracellular secretion was measured using cytotoxicity LDH assay kit [Dojindo; CK12]. Briefly, at the time when the treatment of the cells with Erastin, and RSL3 for 24 hours is completed, the supernatants containing the cells are taken by 70 μL and transferred to a new 96-well plate. The assay buffer included in the kit is added in an amount of 70 μL/well (the same amount as the sample) thereto, and then the plate is wrapped with a foil and the reaction is performed at room temperature for 15 minutes.

In another test the test system is H9C2 cells. Kind of test: Protective effect on heart cells against t-BHP (LDH release). It counts as cell-based. Particulars: H9C2, t-BHP 400 μM, 2 hours, read-out: EC50 (μM), Cell Protection Effect against t-BHP in Heart Cells. Put shortly: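 H9C2 cells (1.5×10^4/well, cultured 24 h) were pretreated 15–20 min with compound at 0.01–30 μM final, then exposed 2 h to 400 μM t-BHP. LDH in supernatant was measured colorimetrically at 490 nm after 30 min room-temperature reaction; EC50 derived from protection.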
For orientation: Release of lactate dehydrogenase indicates damage to the cell membrane.

Setting [1] is: NIH/3T3, Erastin 3 μM, compound 0.1 μM.
Where [2] appears, read: NIH/3T3, Erastin 3 μM, compound 1.0 μM.
Setting [3] is: NIH/3T3, Glutamate 30 mM, compound 0.1 μM.
Setting [4] is: NIH/3T3, Glutamate 30 mM, compound 1.0 μM.
Where [5] appears, read: NIH/3T3, RSL3 3 μM, compound 0.1 μM.
[6] abbreviates: NIH/3T3, RSL3 3 μM, compound 1.0 μM.
[7] abbreviates: Glutamate 75 mM, compound 0.1 μM.
The mark [8] stands for this setting: Glutamate 75 mM, compound 1.0 μM.
Setting [9] is: ARPE-19, Erastin 10 μM, compound 0.03 μM.
The mark [10] stands for this setting: ARPE-19, Erastin 10 μM, compound 0.3 μM.
[11] abbreviates: ARPE-19, RSL3 0.3 μM, compound 0.03 μM.
The mark [12] stands for this setting: ARPE-19, RSL3 0.3 μM, compound 0.3 μM.

The structures appear in SMILES notation. Bounds are passed on as bounds.

Consider `COCCOCc1cc(NCc2ccncc2)c2[nH]c(-c3ccccc3)cc2c1` [Example 45, 5-(2-methoxyethoxymethyl)-2-phenyl-N-(4-pyridylmethyl)-1H-indol-7-amine], for which the “inhibition (%)” value in the test on NIH/3T3 cells (setting [1]) turned out to be 100%; with NIH/3T3 cells (setting [2]), 100%; in the test with NIH/3T3 cells (setting [3]), 0%; with NIH/3T3 cells (setting [4]), 97%; with NIH/3T3 cells (setting [5]), 0%; in the test with NIH/3T3 cells (setting [6]), 100%. The “inhibition (%)” value is listed as 99% in the test with NRK-49F cells (Erastin 3 μM, compound 0.1 μM); 98% in the test with NRK-49F cells (Erastin 3 μM, compound 1.0 μM); 100% with NRK-49F cells (setting [7]); 98% in the test on NRK-49F cells (setting [8]); 99% with NRK-49F cells (RSL3 3 μM, compound 0.1 μM); 98% in the test on NRK-49F cells (RSL3 3 μM, compound 1.0 μM). Besides, the “inhibition (%)” value is 98% in the test on MLE-12 cells (compound 0.1 μM); 100% in the test on MLE-12 cells (compound 1.0 μM); 100% in the test with ARPE-19 cells (setting [9]); 100% in the test with ARPE-19 cells (setting [10]); 100% in the test on ARPE-19 cells (setting [11]); 100% in the test with ARPE-19 cells (setting [12]). For the same compound, the EC50 in the test with H9C2 cells was not above 0.3 µM.
Take `COCCOCc1cc(NC2CCOCC2)c2[nH]cc(C)c2c1` [Example 50, 5-(2-methoxyethoxymethyl)-3-methyl-N-tetrahydropyran-4-yl-1H-indol-7-amine]: the “inhibition (%)” value amounted to 0% in the test with NIH/3T3 cells (setting [1]); 8% with NIH/3T3 cells (setting [2]); 99% in the test on NIH/3T3 cells (setting [3]); 100% in the test on NIH/3T3 cells (setting [4]); 100% with NIH/3T3 cells (setting [5]); 100% in the test on NIH/3T3 cells (setting [6]). For the same compound, the “inhibition (%)” value in the test on NRK-49F cells (Erastin 3 μM, compound 0.1 μM) amounted to 3%; in the test with NRK-49F cells (Erastin 3 μM, compound 1.0 μM), 99%; in the test with NRK-49F cells (setting [7]), 4%; with NRK-49F cells (setting [8]), 73%; in the test on NRK-49F cells (RSL3 3 μM, compound 0.1 μM), 16%; in the test with NRK-49F cells (RSL3 3 μM, compound 1.0 μM) it was 18%. The “inhibition (%)” value in the test with MLE-12 cells (compound 0.1 μM) was 0%; in the test with MLE-12 cells (compound 1.0 μM), 56%; in the test on ARPE-19 cells (setting [9]) it was 19%; with ARPE-19 cells (setting [10]) it was 86%; in the test on ARPE-19 cells (setting [11]), 4%; in the test with ARPE-19 cells (setting [12]), 45%. In addition, in the test on H9C2 cells, the EC50 is more than 1 µM.
Take `COCCOCc1cc(NC2CCNCC2)c2[nH]c(-c3ccccc3)cc2c1` [Example 64, 5-((2-methoxyethoxy)methyl)-2-phenyl-N-(piperidin-4-yl)-1H-indol-7-amine]: the “inhibition (%)” value with NIH/3T3 cells (setting [1]) is 99%; in the test on NIH/3T3 cells (setting [2]), 100%; in the test with NIH/3T3 cells (setting [3]), 99%; in the test on NIH/3T3 cells (setting [4]), 100%; in the test on NIH/3T3 cells (setting [5]) it was 100%; with NIH/3T3 cells (setting [6]) it was 100%. Also, the “inhibition (%)” value in the test on NRK-49F cells (Erastin 3 μM, compound 0.1 μM) is on record as 100%; in the test with NRK-49F cells (Erastin 3 μM, compound 1.0 μM) it was 100%; with NRK-49F cells (setting [7]), 7%; in the test with NRK-49F cells (setting [8]) it was 99%; with NRK-49F cells (RSL3 3 μM, compound 0.1 μM) it was 70%; with NRK-49F cells (RSL3 3 μM, compound 1.0 μM), 100%. Also, the “inhibition (%)” value with MLE-12 cells (compound 0.1 μM) came out at 100%; with MLE-12 cells (compound 1.0 μM), 98%; in the test with ARPE-19 cells (setting [9]), 100%; in the test on ARPE-19 cells (setting [10]), 100%; in the test with ARPE-19 cells (setting [11]), 67%; in the test with ARPE-19 cells (setting [12]) it was 100%. Moreover, the EC50 with H9C2 cells is not above 0.3 µM.
